Assay results reported in patent publication US5707648A, “Transparent liquid for encapsulated drug delivery” (LDS Technologies, Inc., priority 1995, dated 1998).

What was measured:
[1] = tested on: delta-class of opioid receptor; settings: Vaughn et al. 1989; cited from earlier work
[2] = Chemical stability of calcitonin in the formulation; assay type: physicochemical; settings: formulation of Table 7.1
[3] = compared with AVP or LVP; cited from earlier work
[4] = human, in vivo; cited from earlier work
[5] = tested on: plasma Factor VIII; test: Plasma Factor VIII levels following administration of dDAVP (dDAVP Dog Study); assay type: in vivo, Male beagle dogs; settings: dogs; capsules with 13, 43 and 125 μg dDAVP, dDAVP in dextrose, or s.c. 0.4 μg/kg
Protocol: Male beagle dogs weighing 9-12 kg were used in all experiments. Prior to each study, all animals were fasted overnight but were allowed access to water ad libitum.
Peroral administration: Enteric coated hard gelatin capsules, size 0el (0.78 ml) from [sequence], fill materials: 0.73 g of the drug delivery compositions containing:
Subcutaneous administration: 4 μg dDAVP/ml composition, 0.4 μg dDAVP/kg animal (Table 6F).
Plasma Factor VIII levels following administration of dDAVP was used as a pharmacodynamic response to the drug. Maximum response to dDAVP was determined by measuring plasma Factor VIII response levels following subcutaneous administration of dDAVP (Table 6F).
For studies involving capsule administration, a single capsule was given to each animal in each study. Blood samples were taken immediately prior to dDAVP administration (t=0), and at various times thereafter. Plasma levels of Factor VIII were determined using commercially available kits.

[D-Pen^2,5, PCl-Phe^4 ]-enkephalin
interaction with the delta-class of opioid receptor [1]: interacts selectively with the delta-class of opioid receptor

calcitonin
chemical stability of calcitonin in the formulation [2]: chemically stable in this formulation for at least two months

NC(=O)CC[C@@H]1NC(=O)[C@H](Cc2ccccc2)NC(=O)[C@H](Cc2ccc(O)cc2)NC(=O)CCSSC[C@@H](C(=O)N2CCC[C@H]2C(=O)N[C@H](CCCN=C(N)N)C(=O)NCC(N)=O)NC(=O)[C@H](CC(N)=O)NC1=O [desmopressin]
pressor (vasoconstricting) activities [3]: lacks the pressor (vasoconstricting) activities of AVP or LVP | oral bioavailability [4]: 0.1-0.2% | response in plasma Factor VIII levels (in words) [5]: dose-dependent increase in plasma Factor VIII levels
